Primed or numbered codes have the meaning given here. FAM″ = C-terminal FAM dye
Tested on: NSC-34 cells
Assay: Evaluation on cell membrane permeability by flow cytometry (median fluorescence intensity)
Format: cell-based, mouse
Conditions: for MFI (median fluorescence intensity): 25 μM in well, 0.42% DMSO, 20 hours at 37° C., 10% FBS-containing DMEM, detector FL2; for cell membrane permeability: 25 μM, 20 hours, FAM as foreign substance, in words
Description: As the eukaryotic cells, NSC-34 cells (mouse motor neuron-like hybrid cell line) were used and the cell membrane permeability of the samples 1 to 7 was analyzed. In Examples 1 to 7, the prepared sample solutions 1 to 7 were used, respectively, and in Example 8, a FAM solution was used.
The NSC-34 cells were cultured in 10% fetal bovine serum (FBS)-containing Dulbecco's modified Eagle's medium (DMEM (Cat No. 044-29765, manufactured by FUJIFILM Wako Pure Chemical Corporation)), which is a normal culture medium.
The NSC-34 cells that adhered to a culture plate were cleaned with PBS and then, a 0.25%-trypsin/EDTA solution was added thereto, and incubation was performed for three minutes at 37° C. After the incubation, the aforementioned 10% FBS-containing DMEM was added to deactivate trypsin and then, five-minute centrifugal separation was performed at 150×g to precipitate the cells. After the supernatant generated by the centrifugal separation was removed, the 10% FBS-containing DMEM was added to the precipitate (cell pellet) to prepare a cell suspension of about 2×10^5 cells/mL. The cell suspension was added by 1 mL to a well of a commercially available six-hole (well) plate (manufactured by AGC TECHNO GLASS Co., Ltd.) so as to seed the cell (about 2×10^5 cells/well). In addition, the 6 mM sample solution 1 was diluted with the 10% FBS-containing DMEM to prepare the sample solution 1 in which the concentration of the sample 1 was 50 μM. Then, 1 mL of the 50 μM sample solution 1 was added to the well (that is, so that the concentration of the sample 1 became 25 µM and the DMSO concentration became 0.42% in the culture solution in the well). After that, the cell was incubated for 20 hours at 37° C. under a 5% CO2 condition.
After the 20-hour incubation, the culture supernatant was removed from the well and the cells in the well were cleaned twice with 1 mL of PBS. Next, 200 μL of the 0.25% trypsin/EDTA solution was added to the well and the incubation was performed for three minutes at 37° C. After the incubation, 400 μL of the 10% FBS-containing DMEM was added to the well to deactivate the trypsin. Subsequently, the cell suspension in the well was transferred to a tube and the cells were collected. After that, 600 μL of PBS was added further to the well to clean the well. Then, PBS in the well was transferred to the tube, so that the cells remaining in the well were collected in the tube. This tube was subjected to five-minute centrifugal separation at 4° C. under a condition of 210×g. After the centrifugal separation, the supernatant was removed and the precipitate (cell pellet) was suspended (cleaned) with 1 mL of PBS, which was followed by the centrifugal separation under the same condition as that described above. After this operation was repeated twice, the supernatant was removed and thus, the cells (cell pellet) cultured in a culture medium containing the sample 1 were obtained.
Regarding the obtained cells (cell pellet), the cell membrane permeability of the sample 1 was analyzed using a flow cytometer. As the flow cytometer, On-Chip Flowcytometer (manufactured by On-Chip Biotechnologies Co., LTD.) was used.
For such an analysis, the obtained cell pellet was suspended with 100 μL of on-chip T buffer to prepare a cell suspension for analysis.
Using the aforementioned flow cytometer, gating based on forward scatter (FSC) and side scatter (SSC) was performed to set a gate about a cell group to be analyzed, and the fluorescence intensity was measured about the cell group in this gate. Note that the analysis was performed so that the cell group contained at least 10000 cells or more. The fluorescence intensity was measured using a fluorescence detector FL2 of the flow cytometer (optimum detection wavelength around 543 nm) capable of detecting the fluorescence wavelength of FAM. […]

| Substance | MFI (median fluorescence intensity) | cell membrane permeability |
| --- | --- | --- |
| Ac-KKRTLRKDDEERKKR-FAM (Ac-KKRTLRKDDEERKKR-{FAM}) [Example 5] | 14.8 |  |
| Ac-KKRTLRKDEDERKKR-FAM (Ac-KKRTLRKDEDERKKR-{FAM}) [Example 6] | 15.2 |  |
| 5 (6)-carboxyfluorescein [Example 8, reference compound] | 11 |  |
| Ac-KKRTLRKEDEDRKKR-FAM (Ac-KKRTLRKEDEDRKKR-{FAM″}) [Example 3] | 13.8 |  |
| Ac-KKRTLRKDERKKR-FAM (Ac-KKRTLRKDERKKR-{FAM}) [Example 1] | 16.3 | have the cell membrane permeability |
| Ac-KKRTLRKEDRKKR-FAM (Ac-KKRTLRKEDRKKR-{FAM}) [Example 2] | 15.7 | have the cell membrane permeability |
| Ac-KKRTLRKEDEDEDRKKR-FAM (Ac-KKRTLRKEDEDEDRKKR-{FAM}) [Example 7] | 14.3 |  |
| Ac-KKRTLRKEEDDRKKR-FAM (Ac-KKRTLRKEEDDRKKR-{FAM}) [Example 4] | 14.3 |  |
